Laboratory results taken from PubChem BioAssay (NCI).
Several values for one entry are separate records, joined by “and”; a condition that tells them apart may be missing. Equal entries are not always repeated.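 Cells were grown in 96-well plates and exposed to each compound for 48 hours at five concentrations; endpoints were interpolated linearly between bracketing concentrations, or set to the highest concentration if not reached. GI50: concentration for 50% inhibition of growth. The concentration for full growth arrest is given as TGI.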

Legend:
Assay in all cases: NCI anticancer screen, dose series, 48 h
[1] = tested on: OVCAR-8 ovarian
[2] = tested on: HCT-116 colon
[3] = tested on: SK-OV-3 ovarian
[4] = tested on: CAKI-1 renal
[5] = tested on: T-47D breast
[6] = tested on: SN12C renal
[7] = tested on: OVCAR-3 ovarian
[8] = tested on: NCI-H522 lung
[9] = tested on: COLO 205 colon
[10] = tested on: A498 renal

Compound	GI50 [1]	TGI [1]	GI50 [2]	TGI [2]	GI50 [3]	TGI [3]	GI50 [4]	TGI [4]	GI50 [5]	TGI [5]	GI50 [6]	TGI [6]	GI50 [7]	TGI [7]	GI50 [8]	TGI [8]	GI50 [9]	TGI [9]	TGI [10]	GI50 [10]
COC(=O)COc1ccc(/C=C2\N=C(c3ccccc3)N(c3cc(C(F)(F)F)ccc3Cl)C2=O)cc1	40.4 µM	> 100 µM	38.4 µM	> 100 µM	> 100 µM	> 100 µM	> 100 µM	> 100 µM	82.9 µM	> 100 µM	> 100 µM	> 100 µM	26.1 µM	96.8 µM	24.1 µM	68.8 µM	54.4 µM	> 100 µM	–	–
N/N=C(\CC1OC(=O)c2ccccc21)c1ccco1 (configuration not stated)	–	–	–	> 100 µM	–	> 100 µM	–	> 100 µM	–	–	–	–	–	> 100 µM	–	> 100 µM	–	> 100 µM	> 100 µM	–
C1CNCCNCCNCCN1	–	> 100 µM	–	> 100 µM	–	> 100 µM	–	–	–	–	–	> 100 µM	–	> 100 µM	–	> 100 µM	–	> 100 µM	> 100 µM	–
Cc1cc(O)c(C(=O)CC2(O)C(=O)Nc3c(Cl)cc(Cl)cc32)c(=O)o1 (configuration not stated)	–	> 100 µM	–	> 100 µM	–	> 100 µM	–	> 100 µM	–	–	–	> 100 µM	–	> 100 µM	–	> 100 µM	–	> 100 µM	> 100 µM	–
CC(=O)OCSc1ncnc2c1ncn2CN1CCOCC1	–	> 100 µM	–	> 100 µM	–	> 100 µM	–	> 100 µM	–	–	–	> 100 µM	–	> 100 µM	–	> 100 µM	–	53.1 µM	> 100 µM	–
O=C(NC1CC1)c1ccc(-c2nc3ccc4[nH]ncc4c3c3c2CCCC3)cc1	2.34 µM	> 50 µM	1.34 µM	14 µM	–	–	–	–	1.62 µM	15.4 µM	2.24 µM	20.7 µM	4.04 µM	15.8 µM	1.21 µM	9.54 µM	1.8 µM	10.4 µM	5.01 µM	1.03 µM
COc1cc2c(c(OC)c1OC)-c1ccc(SC)c(=O)cc1[C@@H](NC(=O)c1ccc(OC(C)=O)cc1)CC2	–	12.1 µM	–	0.0514 µM and 0.015 µM	–	0.0683 µM and 0.0201 µM	–	> 100 µM	–	–	–	18.8 µM	–	0.034 µM	–	–	–	0.0405 µM	0.0779 µM and 0.0202 µM	–
COC1/C(=C\C(=O)OC(C)(C)C)c2ccccc2N1C(C)=O (configuration not stated)	–	> 100 µM	–	> 100 µM	–	> 100 µM	–	> 100 µM	–	–	–	> 100 µM	–	> 100 µM	–	–	–	> 100 µM	> 100 µM	–
COc1ccc2nc(-c3ccccc3)cc(Nc3ccc(C(C)=O)cc3)c2c1	4.17 µM	35.8 µM	1.54 µM	4.62 µM	16.1 µM	36.9 µM	–	–	15.7 µM	> 100 µM	1.87 µM	4.66 µM	–	–	17.7 µM	> 100 µM	16.4 µM	> 100 µM	–	–
N#CCc1ccc(C(C#N)/C(CCCC(=O)Nc2cccc([N+](=O)[O-])c2)=N\NC(=O)NN)cc1 (configuration not stated)	–	> 100 µM	–	> 100 µM	–	> 100 µM	–	> 100 µM	–	–	–	> 100 µM	–	> 100 µM	–	> 100 µM	–	> 100 µM	> 100 µM	–
O=[N+]([O-])c1ccc(Sc2c3ccccc3nc3ccccc23)cc1	–	> 100 µM	–	> 100 µM	–	–	–	> 100 µM	–	–	–	> 100 µM	–	> 100 µM	–	> 100 µM	–	> 100 µM	–	–
Cc1cccc(C)c1NC(=O)CCCC(=O)CC(=O)/C=C/c1ccccc1	–	> 100 µM	–	> 100 µM	–	> 100 µM	–	> 100 µM	–	–	–	> 100 µM	–	> 100 µM	–	> 100 µM	–	> 100 µM	> 100 µM	–
N#CCN1CCCCCc2ccccc21	–	> 100 µM	–	> 100 µM	–	> 100 µM	–	–	–	> 100 µM	–	> 100 µM	–	–	–	–	–	> 100 µM	–	–
CCOC(=O)/C(=C\c1ccc(OCc2ccccc2)c(OC)c1)C(=O)c1ccccc1	–	> 10 µM	–	31.3 µM	–	> 100 µM	–	64.7 µM	–	–	–	45.6 µM	–	58.1 µM	–	32.6 µM	–	99.2 µM	–	–
CN(C)CC(/C(Cc1ccccc1)=N\NC(=O)c1ccncc1)c1ccccc1 (configuration not stated)	–	> 100 µM	–	–	–	> 100 µM	–	> 100 µM	–	–	–	> 100 µM	–	> 100 µM	–	> 100 µM	–	> 100 µM	–	–
N#CC1=C(N)NC(=S)NC12Nc1ccccc1O2 (configuration not stated)	46.2 µM	> 100 µM	22.5 µM	85.2 µM	37.9 µM	> 100 µM	39.1 µM	> 100 µM	41.5 µM	> 100 µM	25.2 µM	90 µM	36.4 µM	> 100 µM	11.5 µM	43.1 µM	28.1 µM	> 100 µM	–	–
N#CC1=C(N)N=C(N2CCCCC2)C(C#N)C12Nc1ccccc1S2 (configuration not stated)	38.3 µM	> 100 µM	23 µM	> 100 µM	39.1 µM	> 100 µM	–	–	35 µM	> 100 µM	24.8 µM	> 100 µM	–	–	22.2 µM	56.8 µM	29.3 µM	82.6 µM	–	–
CC(=O)C1CC2(c3ccc(C)cc3)C(c3ccc(C)cc3)=C(c3ccc(C)cc3)C1(c1ccc(C)cc1)S2=O (configuration not stated)	88.2 µM	> 100 µM	> 100 µM	> 100 µM	> 100 µM	> 100 µM	> 100 µM	> 100 µM	68 µM	> 100 µM	> 100 µM	> 100 µM	> 100 µM	> 100 µM	> 100 µM	> 100 µM	> 100 µM	> 100 µM	–	–
O=C1C(Cl)=C(Oc2ccc([N+](=O)[O-])cc2)C(=O)c2c(O)ccc(O)c21	–	> 100 µM	–	> 100 µM	–	> 100 µM	–	–	–	> 77.7 µM	–	> 100 µM	–	> 100 µM	–	40.2 µM	–	42.3 µM	> 100 µM	–
